In patent publication US20100215579A1, “PHEN-NAPHTHALENE AND PHEN-QUINOLINE DERIVATIVES AND THEIR USE FOR BINDING AND IMAGING AMYLOID PLAQUES” (The Trustees of the University of Pennsylvania, priority 2007, published 2010):
Values belong to the molecule of their own block, whether it stands above or below them.

Assays:
[1] = Log P (octanol/Na2HPO4 buffer pH 7.4); assay type: physicochemical
amyloid plaques = target: T1, amyloid plaques (Homo sapiens, UniProt P05067); assay: Ki values of Phen-Nap, Nap-Phen derivatives (Ki binding data)
T1 construct: fibrillary Aβ plaques consisting predominately of aggregates of Aβ40 and Aβ42 peptides
T1 sequence (P05067 672-713 limits assumed): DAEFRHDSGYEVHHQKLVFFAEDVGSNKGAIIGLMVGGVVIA
T1 sequence (P05067 672-711 limits assumed): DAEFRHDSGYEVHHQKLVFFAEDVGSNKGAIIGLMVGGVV

[2] = Biodistribution in ICR mice after an iv injection; assay type: in vivo
From the text: Biodistribution in ICR Mice After an iv Injection of [^18F][4-(6-{2-[2-(2-Fluoro-ethoxy)-ethoxy]-ethoxy}-naphthalen-2-yl)-phenyl]-methyl-amine in 1% EtOH/0.1% BSA in Water
(% dose/organ, avg of 3 mice±SD)
(% dose/g, avg of 3 mice±SD)
Biodistribution in ICR Mice After an iv Injection of [^18F]19a in 3% EtOH/0.1% BSA in Water
Biodistribution in ICR Mice After an iv Injection of [^18F]34a in 5% EtOH/0.1% BSA in Water
Biodistribution in ICR Mice After an iv Injection of [^18F]32a in 1% EtOH/0.1% BSA in Water

[3] = Blood, 2 min after iv injection
[4] = Blood, 30 min after iv injection
[5] = Bone, 30 min after iv injection
[6] = Brain, 2 min after iv injection
[7] = Brain, 30 min after iv injection
[8] = Heart, 2 min after iv injection
[9] = Heart, 30 min after iv injection
[10] = Kidney, 2 min after iv injection
[11] = Kidney, 30 min after iv injection
[12] = Kidney, 1 hr after iv injection
[13] = Kidney, 2 hr after iv injection
[14] = Liver, 2 min after iv injection
[15] = Liver, 30 min after iv injection
[16] = Lung, 30 min after iv injection
[17] = Muscle, 2 min after iv injection
[18] = Muscle, 30 min after iv injection
[19] = Muscle, 1 hr after iv injection
[20] = Muscle, 2 hr after iv injection
[21] = Skin, 30 min after iv injection
[22] = Spleen, 2 min after iv injection
[23] = Spleen, 30 min after iv injection
[24] = Spleen, 1 hr after iv injection
[25] = Spleen, 2 hr after iv injection

logP ([1]; pH 7.4): 3.22 | Ki (amyloid plaques): 1.6 nM
SMILES: CNc1ccc(-c2ccc3cc(OCCOCCOCCF)ccc3c2)cc1 [Compound 13a, 4-(6-(2-(2-(2-fluoroethoxy)ethoxy)ethoxy)naphthalen-2-yl)-N-methylbenzenamine]

% dose/g [2, 3]: 2.50 ± 0.14 % dose/g | % dose/organ [2, 3]: 4.29 ± 0.20 % dose/organ | % dose/g [2, 4]: 1.49 ± 0.15 % dose/g | % dose/organ [2, 4]: 2.51 ± 0.18 % dose/organ | % dose/g ([2]; Blood, 1 hr after iv injection): 1.61 ± 0.12 % dose/g | % dose/organ ([2]; Blood, 1 hr after iv injection): 2.87 ± 0.20 % dose/organ | % dose/g ([2]; Blood, 2 hr after iv injection): 1.52 ± 0.23 % dose/g | % dose/organ ([2]; Blood, 2 hr after iv injection): 2.58 ± 0.26 % dose/organ | % dose/g ([2]; Bone, 2 min after iv injection): 1.11 ± 0.11 % dose/g | % dose/organ ([2]; Bone, 2 min after iv injection): 3.82 ± 0.33 % dose/organ | % dose/g [2, 5]: 1.16 ± 0.20 % dose/g | % dose/organ [2, 5]: 3.87 ± 0.43 % dose/organ | % dose/g ([2]; Bone, 1 hr after iv injection): 1.49 ± 0.18 % dose/g | % dose/organ ([2]; Bone, 1 hr after iv injection): 5.31 ± 0.31 % dose/organ | % dose/g ([2]; Bone, 2 hr after iv injection): 2.33 ± 0.43 % dose/g | % dose/organ ([2]; Bone, 2 hr after iv injection): 7.84 ± 0.91 % dose/organ | % dose/g [2, 6]: 10.2 ± 1.09 % dose/g | % dose/organ [2, 6]: 4.61 ± 0.60 % dose/organ | % dose/g [2, 7]: 2.23 ± 0.29 % dose/g | % dose/organ [2, 7]: 1.02 ± 0.11 % dose/organ | % dose/g ([2]; Brain, 1 hr after iv injection): 1.88 ± 0.20 % dose/g | % dose/organ ([2]; Brain, 1 hr after iv injection): 0.90 ± 0.08 % dose/organ | % dose/g ([2]; Brain, 2 hr after iv injection): 1.90 ± 0.25 % dose/g | % dose/organ ([2]; Brain, 2 hr after iv injection): 0.85 ± 0.12 % dose/organ | % dose/g [2, 8]: 10.7 ± 2.06 % dose/g | % dose/organ [2, 8]: 1.26 ± 0.20 % dose/organ | % dose/g [2, 9]: 2.86 ± 0.30 % dose/g | % dose/organ [2, 9]: 0.36 ± 0.05 % dose/organ | % dose/g ([2]; Heart, 1 hr after iv injection): 2.20 ± 0.31 % dose/g | % dose/organ ([2]; Heart, 1 hr after iv injection): 0.29 ± 0.03 % dose/organ | % dose/g ([2]; Heart, 2 hr after iv injection): 1.71 ± 0.13 % dose/g | % dose/organ ([2]; Heart, 2 hr after iv injection): 0.19 ± 0.01 % dose/organ | % dose/g [2, 10]: 13.6 ± 0.10 % dose/g | % dose/organ [2, 10]: 5.22 ± 0.33 % dose/organ | % dose/g [2, 11]: 4.41 ± 0.49 % dose/g | % dose/organ [2, 11]: 1.69 ± 0.22 % dose/organ | % dose/g [2, 12]: 3.57 ± 0.64 % dose/g | % dose/organ [2, 12]: 1.36 ± 0.09 % dose/organ | % dose/g [2, 13]: 2.47 ± 0.45 % dose/g | % dose/organ [2, 13]: 1.00 ± 0.24 % dose/organ | % dose/g [2, 14]: 18.2 ± 0.95 % dose/g | % dose/organ [2, 14]: 21.2 ± 0.76 % dose/organ | % dose/g [2, 15]: 11.9 ± 1.63 % dose/g | % dose/organ [2, 15]: 14.2 ± 0.91 % dose/organ | % dose/g ([2]; Liver, 1 hr after iv injection): 8.99 ± 1.19 % dose/g | % dose/organ ([2]; Liver, 1 hr after iv injection): 11.8 ± 0.65 % dose/organ | % dose/g ([2]; Liver, 2 hr after iv injection): 6.72 ± 0.58 % dose/g | % dose/organ ([2]; Liver, 2 hr after iv injection): 8.29 ± 1.09 % dose/organ | % dose/g ([2]; Lung, 2 min after iv injection): 6.83 ± 0.07 % dose/g | % dose/organ ([2]; Lung, 2 min after iv injection): 1.34 ± 0.03 % dose/organ | % dose/g [2, 16]: 2.87 ± 0.32 % dose/g | % dose/organ [2, 16]: 0.54 ± 0.06 % dose/organ | % dose/g ([2]; Lung, 1 hr after iv injection): 2.42 ± 0.34 % dose/g | % dose/organ ([2]; Lung, 1 hr after iv injection): 0.48 ± 0.06 % dose/organ | % dose/g ([2]; Lung, 2 hr after iv injection): 1.96 ± 0.29 % dose/g | % dose/organ ([2]; Lung, 2 hr after iv injection): 0.36 ± 0.05 % dose/organ | % dose/g [2, 17]: 0.65 ± 0.01 % dose/g | % dose/organ [2, 17]: 6.40 ± 0.14 % dose/organ | % dose/g [2, 18]: 1.50 ± 0.21 % dose/g | % dose/organ [2, 18]: 14.5 ± 2.59 % dose/organ | % dose/g [2, 19]: 1.33 ± 0.17 % dose/g | % dose/organ [2, 19]: 13.5 ± 0.83 % dose/organ | % dose/g [2, 20]: 0.98 ± 0.08 % dose/g | % dose/organ [2, 20]: 9.55 ± 0.31 % dose/organ | % dose/g ([2]; Skin, 2 min after iv injection): 0.58 ± 0.07 % dose/g | % dose/organ ([2]; Skin, 2 min after iv injection): 2.13 ± 0.27 % dose/organ | % dose/g [2, 21]: 1.03 ± 0.12 % dose/g | % dose/organ [2, 21]: 3.70 ± 0.28 % dose/organ | % dose/g ([2]; Skin, 1 hr after iv injection): 1.47 ± 0.12 % dose/g | % dose/organ ([2]; Skin, 1 hr after iv injection): 5.67 ± 0.85 % dose/organ | % dose/g ([2]; Skin, 2 hr after iv injection): 1.12 ± 0.05 % dose/g | % dose/organ ([2]; Skin, 2 hr after iv injection): 4.12 ± 0.12 % dose/organ | % dose/g [2, 22]: 4.11 ± 1.02 % dose/g | % dose/organ [2, 22]: 0.47 ± 0.08 % dose/organ | % dose/g [2, 23]: 2.16 ± 0.05 % dose/g | % dose/organ [2, 23]: 0.21 ± 0.00 % dose/organ | % dose/g [2, 24]: 1.89 ± 0.27 % dose/g | % dose/organ [2, 24]: 0.17 ± 0.01 % dose/organ | % dose/g [2, 25]: 1.48 ± 0.20 % dose/g | % dose/organ [2, 25]: 0.14 ± 0.02 % dose/organ | Log P ([1]; octanol/0.05 M Na2HPO4 buffer (pH 7.4)): 3.23
SMILES: CNc1ccc(-c2ccc3nc(OCCOCCOCC[18F])ccc3c2)cc1 [[^18F]34a]
